“Also recorded” adds a separate entry of the source.
Legend:
Assay type in all cases: binding
[1] = molecular target: T1, Gal-1-g3-L4 (Gal-1-51ENNR54) mutant (Homo sapiens, UniProt P09382, A56R/D55N/DEL52-52/G54N/H53E); assay: ITC assay, ligand titrating mutant Gal-1-g3-L4; details: mutant Gal-1-g3-L4, 298 K; for N, stochiometry (ITC): stochiometry fixed with a value of 1
T1 construct: made in house; host or cells: Escherichia coli BL21 (DE3)
Procedure: (§1) The mutants, Gal-1-g3-L4 and Gal-3-g1-L4, were designed by exchanging two loops, g1-L4 and g3-L4. These mutants were constructed using Quick Change Site Directed Mutagenesis method, and then the proteins were expressed and purified as above procedures.
(§2) The delayed time between injections is 180 s. For every ligands, at least three titrations were done. The dissociation constants (Kd) were calculated using the Origin Program and the experimental data were fitted to a one-set-of-sites model.

[2] = molecular target: T2, human galectin-1 (Gal-1) (Homo sapiens, UniProt P09382); assay: ITC assay, ligand titrating native Gal-1; details: Gal-1, 298 K
T2 construct: made in house; host or cells: Escherichia coli BL21 (DE3)
Procedure: as §2

[3] = molecular target: T3, human galectin-3 carbohydrate recognition domain (Gal-3 CRD) (Homo sapiens, UniProt P17931); assay: ITC assay, ligand titrating native Gal-3 CRD; details: 298 K
T3 construct: The molecule used in this study is a truncated CRD domain of Gal-3; made in house; host or cells: Escherichia coli BL21 (DE3)
Procedure: as §2

[4] = molecular target: T4, Gal-3-g1-L4 (Gal-3 CRD-165AHGDA169) mutant (Homo sapiens, UniProt P17931, E165H/INS164A/N166G/N167D/R168A); assay: ITC assay, ligand titrating mutant Gal-3-g1-L4; details: for N, stochiometry (ITC): stochiometry fixed with a value of 1
T4 construct: The molecule used in this study is a truncated CRD domain of Gal-3; made in house; host or cells: Escherichia coli BL21 (DE3)
Procedure: as §1, §2

[5] = molecular target: T5, Gal-3-g1-L4 mutant (Homo sapiens, UniProt P17931, E165H/INS164A/N166G/N167D/R168A); assay: SPR assay, Gal-3-g1-L4 over immobilized biotin labeled GM1; details: mutant Gal-3-g1-L4, immobilized biotin labeled GM1 pentasaccharide, steady state affinity model, 298 K
T5 construct: The molecule used in this study is a truncated CRD domain of Gal-3; made in house; host or cells: Escherichia coli BL21 (DE3)
Procedure: as §1
(§3) Biotin labeled GM1 pentasaccharide (from CFG) was dissolved into PBS buffer and connected covalently onto a streptavidin (SA) chip as the immobilized phase. […] Galectins in the sample buffer (20 mM PBS, pH7.5, 0.005% Tween 20) were as the flowing phase. Analytes with volume of 30 µl at various concentrations ordered from low to high were programmed to inject with a 30 µl/min flow rate under different sensorgrams. In order to correct for instrumental and concentration effects, a blank flow channel was used as reference. Specific binding analyses were identified by subtraction of the control channel. The kinetic analyses of molecular interactions were calculated according to the steady state affinity model by BIAcore T100 Evaluation software.

[6] = molecular target: T6, Gal-1-g3-L4 mutant (Homo sapiens, UniProt P09382, A56R/D55N/DEL52-52/G54N/H53E); assay: SPR assay, Gal-1-g3-L4 over immobilized biotin labeled GM1; details: mutant Gal-1-g3-L4, immobilized biotin labeled GM1 pentasaccharide, 298 K
T6 construct: made in house; host or cells: Escherichia coli BL21 (DE3)
Procedure: as §1, §3

[7] = molecular target: T7, human galectin-3 CRD (Gal-3 CRD) (Homo sapiens, UniProt P17931); assay: SPR assay, Gal-3 CRD over immobilized biotin labeled GM1; details: immobilized biotin labeled GM1 pentasaccharide, steady state affinity model, 298 K
T7 construct: The molecule used in this study is a truncated CRD domain of Gal-3; made in house; host or cells: Escherichia coli BL21 (DE3)
Procedure: as §3

[8] = molecular target: T2, human galectin-1 (Gal-1); assay: SPR assay, Gal-1 over immobilized biotin labeled GM1; details: Gal-1, immobilized biotin labeled GM1 pentasaccharide, 298 K
Procedure: as §3

T3 sequence (P17931 118-248 limits assumed): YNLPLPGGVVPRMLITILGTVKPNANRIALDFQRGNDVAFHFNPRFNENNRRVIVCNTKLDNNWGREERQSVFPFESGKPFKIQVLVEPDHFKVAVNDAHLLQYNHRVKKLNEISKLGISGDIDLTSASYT
T1 sequence (P09382 with tags, fused parts or gaps DEL52-52/H53E/G54N/D55N/A56R): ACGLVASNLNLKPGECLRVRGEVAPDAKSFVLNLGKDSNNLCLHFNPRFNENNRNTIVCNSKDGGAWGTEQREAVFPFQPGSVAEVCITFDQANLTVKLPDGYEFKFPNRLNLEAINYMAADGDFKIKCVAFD
T2 sequence (P09382 whole entry): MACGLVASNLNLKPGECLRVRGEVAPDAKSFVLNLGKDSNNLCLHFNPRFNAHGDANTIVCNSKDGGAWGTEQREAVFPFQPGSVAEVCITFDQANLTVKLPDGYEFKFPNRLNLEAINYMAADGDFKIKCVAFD
T4 sequence (P17931 with tags, fused parts or gaps INS164A/E165H/N166G/N167D/R168A): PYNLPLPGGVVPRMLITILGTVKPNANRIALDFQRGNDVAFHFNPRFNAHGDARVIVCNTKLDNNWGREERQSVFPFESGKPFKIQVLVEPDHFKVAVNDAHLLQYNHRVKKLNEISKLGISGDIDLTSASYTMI
T7 sequence (P17931 118-248 limits assumed): as the sequence (P17931 118-248 limits assumed) above
T5 sequence (P17931 with tags, fused parts or gaps INS164A/E165H/N166G/N167D/R168A): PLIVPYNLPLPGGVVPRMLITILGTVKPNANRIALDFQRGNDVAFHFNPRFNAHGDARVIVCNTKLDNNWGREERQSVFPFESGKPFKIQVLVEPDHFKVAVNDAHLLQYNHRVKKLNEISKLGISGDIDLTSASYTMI
T6 sequence (P09382 with tags, fused parts or gaps DEL52-52/H53E/G54N/D55N/A56R): as the sequence (P09382 with tags, fused parts or gaps DEL52-52/H53E/G54N/D55N/A56R) above

## CC(=O)N[C@H]1[C@@H](Oc2ccc([N+](=O)[O-])cc2)O[C@H](CO)[C@H](O)[C@@H]1O[C@@H]1O[C@H](CO)[C@H](O)[C@H](O)[C@H]1O [TFN, TF p-nitrophenyl]
[1]
  -ΔH (ITC): 1.5 kcal/mol
  Kd: 719 µM
  Kd (ITC): can bind and interact
  ΔS (ITC): 9.4 cal/mol/deg
  N, stochiometry (ITC): 1.00
[2]
  Kd (ITC): can not recognize; also recorded: does not bind; also recorded: No affinity
[3]; Gal-3 CRD
  -ΔH (ITC): 4.6 kcal/mol
  N, stochiometry (ITC): 1.21
  ΔS (ITC): 3.8 cal/mol/deg
[3]; native Gal-3 CRD as reference
  affinity relative to native Gal-3 (ITC): 100%
[4]; mutant Gal-3-g1-L4, 298 K
  -ΔH (ITC): 3.9 kcal/mol
  Kd: 543 µM
  Kd (ITC): very lower affinity
  ΔS (ITC): 1.9 cal/mol/deg
  N, stochiometry (ITC): 1.00
[4]; mutant Gal-3-g1-L4 compared to native Gal-3, 298 K
  affinity relative to native Gal-3 (ITC): 12%

## CC(=O)N[C@H]1[C@H](O[C@@H]2[C@H](O[C@]3(C(=O)O)C[C@H](O)[C@@H](NC(C)=O)[C@H]([C@H](O)[C@H](O)CO)O3)[C@@H](O)[C@H](O[C@H]3[C@H](O)[C@@H](O)C(O)O[C@@H]3CO)O[C@@H]2CO)O[C@H](CO)[C@H](O)[C@@H]1O[C@@H]1O[C@H](CO)[C@H](O)[C@H](O)[C@H]1O (some centres unmarked) [GM1, Galβ1-3GalNAcβ1-4[NeuAcα2-3]Galβ1-4Glc]
[5]
  Kd: 397 µM
[1]
  -ΔH (ITC): 10.3 kcal/mol
  Kd: 568 µM
  Kd (ITC): gains the TF-binding ability
  ΔS (ITC): −19.8 cal/mol/deg
  N, stochiometry (ITC): 1.00
[6]
  Kd (SPR): Low affinity
[2]
  Kd (ITC): can not recognize and interact; also recorded: does not bind; also recorded: No affinity
[7]
  Kd: 62 µM
[8]
  Kd (SPR): No affinity
[3]; Gal-3 CRD
  -ΔH (ITC): 4.0 kcal/mol
  N, stochiometry (ITC): 1.06
  ΔS (ITC): 6.0 cal/mol/deg
[4]; mutant Gal-3-g1-L4, 298 K
  -ΔH (ITC): 3.2 kcal/mol
  Kd: 415 µM
  ΔS (ITC): 4.7 cal/mol/deg
  N, stochiometry (ITC): 1.00

## Galβ1-3GalNAcα1-O-Ser/Thr [TF antigen]
[2]
  -ΔH (ITC): 26.3 kcal/mol
  Kd: 4000 µM
  ΔS (ITC): −77.2 cal/mol/deg
[2]; stochiometry fixed with a value of 1
  N, stochiometry (ITC): 1.00
[3]; Gal-3 CRD
  -ΔH (ITC): 1.9 kcal/mol
  Kd: 47 µM
  N, stochiometry (ITC): 1.04
  ΔS (ITC): 13.5 cal/mol/deg
